Source: US20250034216A1, “STEREOSELECTIVE COVALENT LIGANDS FOR ONCOGENIC AND IMMUNOLOGICAL PROTEINS” (The Scripps Research Institute, priority 2021, published 2025)

How the values were obtained:
[1] = biological target: T1, CTC1_C584 (Homo sapiens, UniProt Q2NKJ3); assay: IA-DTB cysteine engagement; type: binding; conditions: 22Rv1 cells, 20 μM probe, 1 h, relative to DMSO
T1 construct: endogenous in cells; host or cells: 22Rv1
T1 sequence (Q2NKJ3 1-1217): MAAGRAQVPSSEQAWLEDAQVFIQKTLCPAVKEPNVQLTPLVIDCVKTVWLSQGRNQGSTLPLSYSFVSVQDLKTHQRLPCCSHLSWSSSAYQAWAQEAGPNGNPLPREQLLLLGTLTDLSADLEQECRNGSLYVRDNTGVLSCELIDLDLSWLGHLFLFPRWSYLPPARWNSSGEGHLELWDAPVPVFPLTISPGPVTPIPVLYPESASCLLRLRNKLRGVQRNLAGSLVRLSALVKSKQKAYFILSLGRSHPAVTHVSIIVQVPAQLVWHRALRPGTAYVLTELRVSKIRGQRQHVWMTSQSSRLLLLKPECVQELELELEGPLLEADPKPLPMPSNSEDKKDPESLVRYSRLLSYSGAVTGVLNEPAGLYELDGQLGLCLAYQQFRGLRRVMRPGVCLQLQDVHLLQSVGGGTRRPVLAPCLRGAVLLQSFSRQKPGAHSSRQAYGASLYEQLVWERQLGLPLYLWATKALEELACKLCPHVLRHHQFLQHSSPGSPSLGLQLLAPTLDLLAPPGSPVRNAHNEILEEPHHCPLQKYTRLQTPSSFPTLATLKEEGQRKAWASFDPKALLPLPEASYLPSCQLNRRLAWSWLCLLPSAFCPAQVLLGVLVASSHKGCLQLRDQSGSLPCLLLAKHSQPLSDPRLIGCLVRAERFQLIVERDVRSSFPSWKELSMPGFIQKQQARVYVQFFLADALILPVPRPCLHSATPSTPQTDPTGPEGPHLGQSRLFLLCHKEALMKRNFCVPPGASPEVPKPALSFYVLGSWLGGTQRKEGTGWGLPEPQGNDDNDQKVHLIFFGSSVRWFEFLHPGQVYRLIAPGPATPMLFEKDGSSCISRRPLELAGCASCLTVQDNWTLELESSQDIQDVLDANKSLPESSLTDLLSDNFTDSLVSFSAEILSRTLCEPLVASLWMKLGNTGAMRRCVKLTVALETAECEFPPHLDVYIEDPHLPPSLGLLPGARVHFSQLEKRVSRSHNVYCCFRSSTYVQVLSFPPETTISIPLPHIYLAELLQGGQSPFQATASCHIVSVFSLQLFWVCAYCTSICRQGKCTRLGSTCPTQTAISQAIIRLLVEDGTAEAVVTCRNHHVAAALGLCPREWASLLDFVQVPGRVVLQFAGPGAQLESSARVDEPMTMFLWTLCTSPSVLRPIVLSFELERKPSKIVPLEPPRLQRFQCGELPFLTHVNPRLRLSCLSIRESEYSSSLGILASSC
Method in brief: (§1)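 Read-out is TMT-based cysteine engagement, expressed as each reporter ion intensity divided by the average of the DMSO channels. Before that, probe-treated cell lysates were capped with IA-DTB, digested, enriched on streptavidin and TMT-tagged. PSMs with DMSO summed intensity <10,000 or DMSO CV >0.5 were excluded.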

[2] = biological target: T2, HSD11B2_C264 (Homo sapiens, UniProt P80365); assay: IA-DTB cysteine engagement; type: binding; conditions: 22Rv1 cells, 20 μM probe, 1 h, relative to DMSO
T2 construct: endogenous in cells; host or cells: 22Rv1
T2 sequence (P80365 1-405): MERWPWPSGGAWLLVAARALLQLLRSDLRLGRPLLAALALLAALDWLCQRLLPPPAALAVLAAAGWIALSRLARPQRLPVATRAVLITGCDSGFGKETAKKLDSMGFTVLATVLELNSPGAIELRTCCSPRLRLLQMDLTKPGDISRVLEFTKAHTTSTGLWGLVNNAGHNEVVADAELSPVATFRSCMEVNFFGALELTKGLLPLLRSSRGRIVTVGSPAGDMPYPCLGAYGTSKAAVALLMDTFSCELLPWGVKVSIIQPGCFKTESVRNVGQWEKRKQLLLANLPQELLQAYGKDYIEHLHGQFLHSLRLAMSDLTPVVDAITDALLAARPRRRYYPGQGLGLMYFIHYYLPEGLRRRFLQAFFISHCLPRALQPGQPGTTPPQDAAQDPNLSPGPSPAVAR
Method in brief: as §1

% engagement CTC1_C584 [1] [%]	% engagement HSD11B2_C264 [2] [%]	SMILES
66.25	90.25	C=CC(=O)N1C[C@H](c2ccc(Br)cc2)[C@H]1C(=O)Nc1cccc2cccnc12 [MY-3B, (2S,3S)-1-acryloyl-3-(4-bromophenyl)-N-(quinolin-8-yl)azetidine-2-carboxamide]
37.25	22	C=CC(=O)N1C[C@H](c2ccc(Br)cc2)[C@@H]1C(=O)Nc1cccc2cccnc12 [MY-1B, (2R,3S)-1-acryloyl-3-(4-bromophenyl)-N-(quinolin-8-yl)azetidine-2-carboxamide]
23.5	23.5	C=CC(=O)N1C[C@H](c2ccc(Br)cc2)[C@H]1C(=O)Nc1cccc2cccnc12 [MY-3A, (2S,3S)-1-acryloyl-3-(4-bromophenyl)-N-(quinolin-8-yl)azetidine-2-carboxamide]
20.25	30.5	C=CC(=O)N1C[C@@H](c2ccc(Br)cc2)[C@H]1C(=O)Nc1cccc2cccnc12 [MY-1A, (2S,3R)-1-acryloyl-3-(4-bromophenyl)-N-(quinolin-8-yl)azetidine-2-carboxamide]
